Test results published in patent US20090298834A1, “4-(AMINOMETHYL)CYCLOHEXANAMINE DERIVATIVES AS CALCIUM CHANNEL BLOCKERS” (priority 2008, published 2009).

Experiments:
[1] = biological target: T1, human α1H T-type channels (Homo sapiens, UniProt O95180); assay: T-type calcium channel block, whole cell patch clamp (α1H); type: cell-based; conditions: HEK cells stably expressing human α1H; mainly non-inactivated protocol; values above 10 μM represented as 10 μM
T1 construct: expressed in transfected cells; host or cells: HEK 293
T1 sequence (O95180 whole entry): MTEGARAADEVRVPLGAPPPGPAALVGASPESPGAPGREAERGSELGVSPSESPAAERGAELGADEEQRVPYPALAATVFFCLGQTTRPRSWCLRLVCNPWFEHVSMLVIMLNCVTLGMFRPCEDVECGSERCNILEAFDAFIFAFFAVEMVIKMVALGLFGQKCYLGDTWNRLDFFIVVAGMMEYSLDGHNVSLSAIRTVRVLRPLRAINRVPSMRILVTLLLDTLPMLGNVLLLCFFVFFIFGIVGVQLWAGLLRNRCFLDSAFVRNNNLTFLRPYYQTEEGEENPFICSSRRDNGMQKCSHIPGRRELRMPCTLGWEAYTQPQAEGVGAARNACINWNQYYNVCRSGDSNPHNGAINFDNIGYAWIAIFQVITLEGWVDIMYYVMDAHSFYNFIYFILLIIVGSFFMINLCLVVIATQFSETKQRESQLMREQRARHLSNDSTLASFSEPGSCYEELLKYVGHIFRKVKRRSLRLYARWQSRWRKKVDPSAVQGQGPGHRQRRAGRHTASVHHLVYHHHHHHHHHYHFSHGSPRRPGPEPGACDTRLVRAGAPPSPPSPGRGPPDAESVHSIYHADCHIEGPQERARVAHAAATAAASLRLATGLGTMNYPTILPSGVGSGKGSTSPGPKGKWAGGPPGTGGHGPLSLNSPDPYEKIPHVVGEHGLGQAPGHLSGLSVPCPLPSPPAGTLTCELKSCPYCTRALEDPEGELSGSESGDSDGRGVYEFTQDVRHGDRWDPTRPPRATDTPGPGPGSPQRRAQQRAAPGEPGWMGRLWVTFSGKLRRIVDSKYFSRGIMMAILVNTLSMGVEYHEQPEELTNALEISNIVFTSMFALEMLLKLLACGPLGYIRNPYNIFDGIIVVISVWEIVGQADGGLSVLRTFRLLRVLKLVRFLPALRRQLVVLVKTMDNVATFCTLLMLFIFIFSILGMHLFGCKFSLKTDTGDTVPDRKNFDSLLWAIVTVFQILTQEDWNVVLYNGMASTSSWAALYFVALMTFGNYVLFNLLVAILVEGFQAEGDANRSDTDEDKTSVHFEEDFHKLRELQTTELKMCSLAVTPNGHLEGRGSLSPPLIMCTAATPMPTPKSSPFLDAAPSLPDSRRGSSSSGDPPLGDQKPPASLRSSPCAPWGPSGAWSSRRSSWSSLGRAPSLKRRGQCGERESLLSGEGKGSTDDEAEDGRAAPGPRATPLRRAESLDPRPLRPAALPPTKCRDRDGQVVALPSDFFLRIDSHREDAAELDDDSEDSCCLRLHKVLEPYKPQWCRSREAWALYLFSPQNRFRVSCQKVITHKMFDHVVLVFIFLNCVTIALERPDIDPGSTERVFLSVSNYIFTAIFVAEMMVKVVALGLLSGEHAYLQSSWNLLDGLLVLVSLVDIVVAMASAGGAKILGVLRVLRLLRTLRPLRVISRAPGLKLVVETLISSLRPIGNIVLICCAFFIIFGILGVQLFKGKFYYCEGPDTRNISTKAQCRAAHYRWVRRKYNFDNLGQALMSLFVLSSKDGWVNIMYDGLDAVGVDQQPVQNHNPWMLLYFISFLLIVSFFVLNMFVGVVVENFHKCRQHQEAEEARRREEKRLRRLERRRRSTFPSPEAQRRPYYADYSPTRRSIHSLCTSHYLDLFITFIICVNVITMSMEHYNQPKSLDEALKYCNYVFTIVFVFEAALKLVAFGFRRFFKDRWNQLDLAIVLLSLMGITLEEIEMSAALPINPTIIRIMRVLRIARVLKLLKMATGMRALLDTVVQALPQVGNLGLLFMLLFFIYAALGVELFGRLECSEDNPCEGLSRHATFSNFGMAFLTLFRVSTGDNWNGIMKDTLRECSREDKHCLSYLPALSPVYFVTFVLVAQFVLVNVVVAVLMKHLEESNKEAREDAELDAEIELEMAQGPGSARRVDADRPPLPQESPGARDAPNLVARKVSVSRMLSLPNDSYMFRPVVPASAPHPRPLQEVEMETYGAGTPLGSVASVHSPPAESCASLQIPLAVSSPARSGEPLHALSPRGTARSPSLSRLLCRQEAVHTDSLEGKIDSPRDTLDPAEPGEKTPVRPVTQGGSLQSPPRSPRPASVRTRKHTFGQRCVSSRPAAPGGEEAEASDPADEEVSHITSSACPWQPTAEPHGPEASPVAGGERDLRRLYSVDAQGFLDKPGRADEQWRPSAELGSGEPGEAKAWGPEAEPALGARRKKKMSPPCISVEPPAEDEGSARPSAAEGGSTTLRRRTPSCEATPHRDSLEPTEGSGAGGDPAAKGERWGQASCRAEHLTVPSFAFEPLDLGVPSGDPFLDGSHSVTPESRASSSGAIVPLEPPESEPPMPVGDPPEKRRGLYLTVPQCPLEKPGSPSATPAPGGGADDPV
Description: (§1) T-type calcium channel blocking activity was assayed in human embryonic kidney cells, HEK 293, stably transfected with the T-type calcium channel subunits. Briefly, cells were cultured in Dulbecco's modified eagle medium (DMEM) supplemented with 10% fetal bovine serum, 200 U/ml penicillin and 0.2 mg/ml streptomycin at 37° C. with 5% CO2. At 85% confluency cells were split with 0.25% trypsin/1 mM EDTA and plated at 10% confluency on glass coverslips. At 12 hours the medium was replaced and the cells stably transfected using a standard calcium phosphate protocol and the appropriate calcium channel cDNA's. Fresh DMEM was supplied and the cells transferred to 28° C./5% CO2. Cells were incubated for 1 to 2 days prior to whole cell recording.
(§2) Standard patch-clamp techniques were employed to identify blockers of T-type currents. Briefly, previously described HEK cell lines stably expressing human α1G, α1H and α1I T-type channels were used for all the recordings (passage #: 4-20, 37° C., 5% CO2). Whole cell patch clamp experiments were performed using an Axopatch 200B amplifier (Axon Instruments, Burlingame, Calif.) linked to a personal computer equipped with pCLAMP software. Data were analyzed using Clampfit (Axon Instruments) and SigmaPlot 4.0 (Jandel Scientific). To obtain T-type currents, plastic dishes containing semi-confluent cells were positioned on the stage of a ZEISS AXIOVERT S100 microscope after replacing the culture medium with external solution (see below). Whole-cell patches were obtained using pipettes (borosilicate glass with filament, O.D.: 1.5 mm, I.D.: 0.86 mm, 10 cm length), fabricated on a SUTTER P-97 puller with resistance values of ˜5 MΩ (see below for internal solution).
(§3) In the non-inactivating protocol, the holding potential is set at −110 mV and with a pre-pulse at −100 mV for 1 second prior to the test pulse at −40 mV for 50 ms. In the inactivation protocol, the pre-pulse is at approximately −85 mV for 1 second, which inactivates about 15% of the T-type channels.
(§4) Test compounds were dissolved in external solution, 0.1-0.01% DMSO. After 10 min rest, they were applied by gravity close to the cell using a WPI microfil tubing. The “non-inactivated” pre-pulse was used to examine the resting block of a compound. The “inactivated” protocol was employed to study voltage-dependent block. However, the initial data shown below were mainly obtained using the non-inactivated protocol only. . IC50 values are shown for various compounds of the invention in Table 4 for the drug of interest. Values are shown in μM and values above 10 μM are simply represented as 10 μM.

[2] = biological target: T2, human α1G T-type channels (Homo sapiens, UniProt O43497); assay: T-type calcium channel block, whole cell patch clamp (α1G); type: cell-based; conditions: HEK cells stably expressing human α1G; mainly non-inactivated protocol; values above 10 μM represented as 10 μM, values below 0.30 μM represented as 0.30 μM
T2 construct: expressed in transfected cells; host or cells: HEK 293
T2 sequence (O43497 whole entry): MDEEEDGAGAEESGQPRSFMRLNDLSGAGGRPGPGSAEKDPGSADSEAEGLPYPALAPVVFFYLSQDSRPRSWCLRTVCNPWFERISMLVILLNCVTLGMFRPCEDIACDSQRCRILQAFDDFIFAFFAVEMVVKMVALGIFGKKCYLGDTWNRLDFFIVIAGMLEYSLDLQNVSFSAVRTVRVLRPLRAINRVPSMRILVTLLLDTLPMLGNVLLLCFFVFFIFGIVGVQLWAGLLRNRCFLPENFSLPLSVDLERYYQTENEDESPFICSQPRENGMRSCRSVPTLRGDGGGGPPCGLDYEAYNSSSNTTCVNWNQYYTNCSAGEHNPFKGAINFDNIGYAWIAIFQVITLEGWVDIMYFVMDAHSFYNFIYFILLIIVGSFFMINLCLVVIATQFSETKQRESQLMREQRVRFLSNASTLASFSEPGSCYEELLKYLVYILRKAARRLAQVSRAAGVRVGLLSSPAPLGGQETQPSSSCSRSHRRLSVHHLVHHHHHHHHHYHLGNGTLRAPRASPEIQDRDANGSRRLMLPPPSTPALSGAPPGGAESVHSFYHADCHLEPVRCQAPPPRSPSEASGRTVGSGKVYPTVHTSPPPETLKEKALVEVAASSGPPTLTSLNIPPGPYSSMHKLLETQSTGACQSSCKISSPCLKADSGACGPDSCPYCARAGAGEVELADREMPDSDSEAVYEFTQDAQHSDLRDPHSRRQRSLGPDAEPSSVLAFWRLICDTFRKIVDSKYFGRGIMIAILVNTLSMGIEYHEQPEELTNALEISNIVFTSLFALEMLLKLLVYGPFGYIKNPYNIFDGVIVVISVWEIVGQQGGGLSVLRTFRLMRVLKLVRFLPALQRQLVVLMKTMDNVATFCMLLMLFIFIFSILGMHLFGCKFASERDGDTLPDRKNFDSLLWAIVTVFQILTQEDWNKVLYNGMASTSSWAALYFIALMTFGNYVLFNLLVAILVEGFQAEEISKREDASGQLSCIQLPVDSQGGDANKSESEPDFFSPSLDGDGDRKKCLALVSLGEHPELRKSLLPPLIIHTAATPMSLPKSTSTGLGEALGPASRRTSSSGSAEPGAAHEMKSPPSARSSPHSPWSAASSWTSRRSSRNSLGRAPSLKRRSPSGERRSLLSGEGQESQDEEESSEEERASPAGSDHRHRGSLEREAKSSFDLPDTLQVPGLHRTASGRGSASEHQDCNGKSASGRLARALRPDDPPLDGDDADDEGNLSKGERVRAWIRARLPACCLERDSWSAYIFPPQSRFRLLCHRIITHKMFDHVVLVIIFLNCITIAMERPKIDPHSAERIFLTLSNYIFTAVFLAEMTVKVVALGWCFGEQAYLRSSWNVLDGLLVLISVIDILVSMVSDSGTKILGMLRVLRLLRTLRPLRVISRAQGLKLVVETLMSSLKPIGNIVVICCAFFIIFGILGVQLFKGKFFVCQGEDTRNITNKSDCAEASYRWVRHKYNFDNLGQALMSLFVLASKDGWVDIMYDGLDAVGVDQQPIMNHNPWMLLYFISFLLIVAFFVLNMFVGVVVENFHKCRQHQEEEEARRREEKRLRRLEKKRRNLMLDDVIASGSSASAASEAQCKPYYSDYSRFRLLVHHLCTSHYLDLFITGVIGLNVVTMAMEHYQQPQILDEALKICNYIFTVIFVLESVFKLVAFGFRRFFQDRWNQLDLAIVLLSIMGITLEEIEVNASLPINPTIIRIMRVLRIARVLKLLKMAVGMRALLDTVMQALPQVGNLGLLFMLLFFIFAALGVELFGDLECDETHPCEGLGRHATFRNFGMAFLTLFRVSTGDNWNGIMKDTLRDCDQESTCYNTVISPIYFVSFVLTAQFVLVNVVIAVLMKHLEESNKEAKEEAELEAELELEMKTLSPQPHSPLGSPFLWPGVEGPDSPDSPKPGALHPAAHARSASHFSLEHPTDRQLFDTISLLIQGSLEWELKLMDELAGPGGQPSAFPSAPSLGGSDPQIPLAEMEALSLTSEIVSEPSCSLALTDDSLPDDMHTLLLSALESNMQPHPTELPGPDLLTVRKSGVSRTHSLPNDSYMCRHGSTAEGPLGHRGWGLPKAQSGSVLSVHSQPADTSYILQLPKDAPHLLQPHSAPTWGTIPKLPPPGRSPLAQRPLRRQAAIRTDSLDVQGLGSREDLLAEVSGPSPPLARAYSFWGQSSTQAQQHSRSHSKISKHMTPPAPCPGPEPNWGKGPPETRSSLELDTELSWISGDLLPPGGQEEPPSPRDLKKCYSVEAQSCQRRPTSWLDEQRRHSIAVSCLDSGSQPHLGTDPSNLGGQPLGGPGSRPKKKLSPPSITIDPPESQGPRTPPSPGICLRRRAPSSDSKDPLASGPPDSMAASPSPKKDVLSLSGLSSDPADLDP
Description: as §1, §2, §3, §4

Row | SMILES | IC50 [1] [nM] | IC50 [2] [nM]
1 | COc1cccnc1CN[C@H]1CC[C@H](CNC(=O)c2cc(C(F)(F)F)cc(C(F)(F)F)c2)CC1 [Compound 30, N-((trans-4-((3-methoxypyridin-2-yl)methylamino)cyclohexyl)methyl)-3,5-bis(trifluoromethyl)benzamide] | 5830 | 1060
2 | O=C(NC[C@H]1CC[C@H](NCc2cccc(F)c2O)CC1)c1cc(C(F)(F)F)cc(C(F)(F)F)c1 [Compound 31, N-((trans-4-(3-fluoro-2-hydroxybenzylamino)cyclohexyl)methyl)-3,5-bis(trifluoromethyl)benzamide] | 2470 | ≤ 300
3 | O=C(NC[C@H]1CC[C@H](NCc2c(O)cccc2F)CC1)c1cc(C(F)(F)F)cc(C(F)(F)F)c1 [Compound 32, N-((trans-4-(2-fluoro-6-hydroxybenzylamino)cyclohexyl)methyl)-3,5-bis(trifluoromethyl)benzamide] | 3450 | 330
4 | COc1cccc(O)c1CN[C@H]1CC[C@H](CNC(=O)c2cc(C(F)(F)F)cc(C(F)(F)F)c2)CC1 [Compound 33, N-((trans-4-(2-hydroxy-6-methoxybenzylamino)cyclohexyl)methyl)-3,5-bis(trifluoromethyl)benzamide] | 710 | ≤ 300
5 | O=C(NC[C@H]1CC[C@H](NCc2c(F)cccc2Cl)CC1)c1cc(C(F)(F)F)cc(C(F)(F)F)c1 [Compound 34, N-((trans-4-(2-chloro-6-fluorobenzylamino)cyclohexyl)methyl)-3,5-bis(trifluoromethyl)benzamide] | 1970 | ≤ 300
6 | COc1ccc(CN[C@H]2CC[C@H](CNC(=O)c3cc(C(F)(F)F)cc(C(F)(F)F)c3)CC2)c(OC)c1 [Compound 35, N-((trans-4-(2,4-dimethoxybenzylamino)cyclohexyl)methyl)-3,5-bis(trifluoromethyl)benzamide] | 770 | 390
7 | CCN(CC)C(=O)CN[C@H]1CC[C@@H](CNC(=O)c2cc(C(F)(F)F)cc(C(F)(F)F)c2)CC1 [Compound 41, N-((cis-4-(2-(diethylamino)-2-oxoethylamino)cyclohexyl)methyl)-3,5-bis(trifluoromethyl)benzamide] | 330 | ≤ 300
8 | CCC(CC)NC(=O)CN[C@H]1CC[C@@H](CNC(=O)c2cc(C(F)(F)F)cc(C(F)(F)F)c2)CC1 [Compound 42, N-((cis-4-(2-oxo-2-(pentan-3-ylamino)ethylamino)cyclohexyl)methyl)-3,5-bis(trifluoromethyl)benzamide] | 120 | ≤ 300
9 | C#CC(CC)(CC)NC(=O)CN[C@H]1CC[C@@H](CNC(=O)c2cc(C(F)(F)F)cc(C(F)(F)F)c2)CC1 [Compound 47, N-((cis-4-(2-(3-ethylpent-1-yn-3-ylamino)-2-oxoethylamino)cyclohexyl)methyl)-3,5-bis(trifluoromethyl)benzamide] | 10 | ≤ 300
10 | COC1CCC(N(C)C(=O)CN[C@H]2CC[C@@H](CNC(=O)c3cc(C(F)(F)F)cc(C(F)(F)F)c3)CC2)CC1 (stereo partly drawn) [Compound 50, N-((cis-4-(2-((4-methoxycyclohexyl)(methyl)amino)-2-oxoethylamino)cyclohexyl)methyl)-3,5-bis(trifluoromethyl)benzamide] | 2470 | 4280
11 | CC(C)(C)c1nc(CN[C@H]2CC[C@@H](CNC(=O)c3cc(C(F)(F)F)cc(C(F)(F)F)c3)CC2)no1 [Compound 51, N-((cis-4-((5-tert-butyl-1,2,4-oxadiazol-3-yl)methylamino)cyclohexyl)methyl)-3,5-bis(trifluoromethyl)benzamide] | 820 | 1150
12 | Cc1cc(CN[C@H]2CC[C@@H](CNC(=O)c3cc(C(F)(F)F)cc(C(F)(F)F)c3)CC2)no1 [Compound 52, N-((cis-4-((5-methylisoxazol-3-yl)methylamino)cyclohexyl)methyl)-3,5-bis(trifluoromethyl)benzamide] | 1330 | 1240
13 | CCN(CC)C(=O)CN[C@H]1CC[C@H](CNC(=O)c2cc(C(F)(F)F)cc(C(F)(F)F)c2)CC1 [Compound 56, N-((trans-4-(2-(diethylamino)-2-oxoethylamino)cyclohexyl)methyl)-3,5-bis(trifluoromethyl)benzamide] | 590 | 440
14 | CCC(CC)NC(=O)CN[C@H]1CC[C@H](CNC(=O)c2cc(C(F)(F)F)cc(C(F)(F)F)c2)CC1 [Compound 57, N-((trans-4-(2-oxo-2-(pentan-3-ylamino)ethylamino)cyclohexyl)methyl)-3,5-bis(trifluoromethyl)benzamide] | 430 | ≤ 300

Second part, the molecule after the results:

Row | IC50 [1] [nM] | IC50 [2] [nM] | SMILES
15 | 790 | 1330 | O=C(NC[C@H]1CC[C@@H](NCC(=O)N2CCCC2)CC1)c1cc(C(F)(F)F)cc(C(F)(F)F)c1 [Compound 39, N-((cis-4-(2-oxo-2-(pyrrolidin-1-yl)ethylamino)cyclohexyl)methyl)-3,5-bis(trifluoromethyl)benzamide]
16 | 190 | ≤ 300 | CC(C)(C)NC(=O)CN[C@H]1CC[C@@H](CNC(=O)c2cc(C(F)(F)F)cc(C(F)(F)F)c2)CC1 [Compound 40, N-((cis-4-(2-(tert-butylamino)-2-oxoethylamino)cyclohexyl)methyl)-3,5-bis(trifluoromethyl)benzamide]
17 | 450 | 910 | O=C(CN[C@H]1CC[C@@H](CNC(=O)c2cc(C(F)(F)F)cc(C(F)(F)F)c2)CC1)NCC(F)(F)F [Compound 43, N-((cis-4-(2-oxo-2-(2,2,2-trifluoroethylamino)ethylamino)cyclohexyl)methyl)-3,5-bis(trifluoromethyl)benzamide]
18 | 260 | ≤ 300 | CN(C(=O)CN[C@H]1CC[C@@H](CNC(=O)c2cc(C(F)(F)F)cc(C(F)(F)F)c2)CC1)C1CCCC1 [Compound 44, N-((cis-4-(2-(cyclopentyl(methyl)amino)-2-oxoethylamino)cyclohexyl)methyl)-3,5-bis(trifluoromethyl)benzamide]
19 | 450 | ≤ 300 | O=C(CN[C@H]1CC[C@@H](CNC(=O)c2cc(C(F)(F)F)cc(C(F)(F)F)c2)CC1)NN1CCCCC1 [Compound 45, N-((cis-4-(2-oxo-2-(piperidin-1-ylamino)ethylamino)cyclohexyl)methyl)-3,5-bis(trifluoromethyl)benzamide]
20 | 250 | 350 | O=C(CN[C@H]1CC[C@@H](CNC(=O)c2cc(C(F)(F)F)cc(C(F)(F)F)c2)CC1)NCC1CCCCC1 [Compound 48, N-((cis-4-(2-(cyclohexylmethylamino)-2-oxoethylamine)cyclohexyl)methyl)-3,5-bis(trifluoromethyl)benzamide]
21 | 210 | ≤ 300 | CCC1CCCN1C(=O)CN[C@H]1CC[C@@H](CNC(=O)c2cc(C(F)(F)F)cc(C(F)(F)F)c2)CC1 (stereo partly drawn) [Compound 54, N-((cis-4-(2-(2-ethylpyrrolidin-1-yl)-2-oxoethylamino)cyclohexyl)methyl)-3,5-bis(trifluoromethyl)benzamide]
22 | 370 | ≤ 300 | CC(C)(C)NC(=O)CN[C@H]1CC[C@H](CNC(=O)c2cc(C(F)(F)F)cc(C(F)(F)F)c2)CC1 [Compound 55, N-((trans-4-(2-(tert-butylamino)-2-oxoethylamino)cyclohexyl)methyl)-3,5-bis(trifluoromethyl)benzamide]
23 | 530 | 1000 | O=C(CN[C@H]1CC[C@H](CNC(=O)c2cc(C(F)(F)F)cc(C(F)(F)F)c2)CC1)NCC(F)(F)F [Compound 58, N-((trans-4-(2-oxo-2-(2,2,2-trifluoroethylamino)ethylamino)cyclohexyl)methyl)-3,5-bis(trifluoromethyl)benzamide]
24 | 620 | ≤ 300 | CN(C(=O)CN[C@H]1CC[C@H](CNC(=O)c2cc(C(F)(F)F)cc(C(F)(F)F)c2)CC1)C1CCCC1 [Compound 59, N-((trans-4-(2-(cyclopentyl(methyl)amino)-2-oxoethylamino)cyclohexyl)methyl)-3,5-bis(trifluoromethyl)benzamide]
25 | 1890 | 1300 | O=C(CN[C@H]1CC[C@H](CNC(=O)c2cc(C(F)(F)F)cc(C(F)(F)F)c2)CC1)NN1CCCCC1 [Compound 60, N-((trans-4-(2-oxo-2-(piperidin-1-ylamino)ethylamino)cyclohexyl)methyl)-3,5-bis(trifluoromethyl)benzamide]
